This is an account of results in patent US20230416258A1, “BENZ[…], AND PREPARATION METHOD THEREFOR AND USE THEREOF” (CHINA PHARMACEUTICAL UNIVERSITY, priority 2020, published 2023).

For this experiment, the system named is KM mice. The experiment is described as follows: Test for drug-induced disappearance of righting reflex in mice. As to conditions: single rapid bolus via tail vein. It is filed as in vivo. An excerpt: In anesthetic drug experiments, latency generally refers to the time from the start of administration to the loss of consciousness of the subject. The shorter latency is preferred, indicating a rapid onset of action after administration. The duration of anesthesia generally refers to the duration of time from the loss of consciousness to the restoration of consciousness of the subject. The duration of the drug will vary from animal model to animal species. Too long anesthesia may produce adverse cardiovascular and respiratory responses, such as adverse neurological effects to the subject, including sleepiness and dizziness; meanwhile, too short duration of anesthesia may affect the anesthesia effect, causing problems such as increase of anesthesia dosage during the operation.
KM mice (female, 18-25 g) were randomly grouped and subjected to a single administration by rapid bolus via the tail vein. The latency and duration of disappearance of righting reflex in the mice were recorded.

Under “60 mg/kg”, `COC(=O)CC[C@@H]1N=C(c2ccccc2Cl)c2cc(Br)ccc2-n2c(SC3CCN(C)CC3)nnc21` [Compound 94, methyl (S)-3-(8-bromo-6-(2-chlorophenyl)-1-((1-methylpiperidin-4-yl)thio)-4H-benzo[f][1,2,4]triazolo[4,3-a][1,4]diazepin-4-yl)propionate] came in with a Duration of 13.85 min and a Latency of 0.61 min.

`CCCSc1nnc2n1-c1ccc(Br)cc1C(c1ccccc1F)=N[C@H]2CCC(=O)OC` [Compound 15, methyl (S)-3-(8-bromo-6-(2-fluorophenyl)-1-(propylthio)-4H-benzo[f][1,2,4]triazolo[4,3-a][1,4]diazepin-4-yl)propionate]: where the note is “30 mg/kg”, the Duration is recorded as 8.47 min and the Latency was determined as 1.03 min.

As to `COC(=O)CC[C@@H]1N=C(c2ccccc2Cl)c2cc(Cl)ccc2-n2c(SC(=O)N3CCN(C)CC3)nnc21` [Compound 130, methyl (S)-3-(8-chloro-6-(2-chlorophenyl)-1-(2-(4-methylpiperazine-1-carbonyl)thio)-4H-benzo[f][1,2,4]triazolo[4,3-a][1,4]diazepin-4-yl)propionate], where the note is “30 mg/kg”, the Duration came to 18.27 min and the Latency is reported as 0.52 min.

Regarding `COC(=O)CC[C@@H]1N=C(c2ccccn2)c2cc(Br)ccc2-n2c(S)nnc21` [Compound 3, methyl (S)-3-(8-bromo-6-(pyridin-2-yl)-1-mercapto-4H-benzo[f][1,2,4]triazolo[4,3-a][1,4]diazepin-4-yl)propionate], where the note is “30 mg/kg”, the Duration is reported as 7.37 min and the Latency is listed as 0.48 min.

Where the note is “30 mg/kg”, `COC(=O)CC[C@@H]1N=C(c2ccccc2F)c2cc(Br)ccc2-n2c(SCCCN(C)C)nnc21` [Compound 58, methyl (S)-3-(8-bromo-1-((3-(dimethylamino)propyl)thio)-6-(2-fluorophenyl)-4H-benzo[f][1,2,4]triazolo[4,3-a][1,4]diazepin-4-yl)propionate] yielded a Duration of 7.76 min and a Latency of 0.25 min. Where the note is “60 mg/kg”, the Duration was 11.17 min and the Latency is reported as 0.33 min.

For `COC(=O)CC[C@@H]1N=C(c2ccccc2Cl)c2cc([N+](=O)[O-])ccc2-n2c(SC(C)=O)nnc21` [Compound 40, methyl (S)-3-(8-nitro-6-(2-chlorophenyl)-1-(acetylthio)-4H-benzo[f][1,2,4]triazolo[4,3-a][1,4]diazepin-4-yl)propionate], for the setting “30 mg/kg”, the Duration is given as 8.94 min and the Latency is 0.37 min.

`CCN(CC)CCSc1nnc2n1-c1ccc(Cl)cc1C(c1ccccc1Cl)=N[C@H]2CCC(=O)OC` [Compound 84, methyl (S)-3-(8-chloro-6-(2-chlorophenyl)-1-((2-(diethylamino)ethyl)thio)-4H-benzo[f][1,2,4]triazolo[4,3-a][1,4]diazepin-4-yl)propionate]: where the note is “30 mg/kg”, the Duration stood at 21.9 min and the Latency came out at 0.31 min.

For `COC(=O)CC[C@@H]1N=C(c2ccccc2Cl)c2cc(Cl)ccc2-n2c(SCCC(=O)N(C)C)nnc21` [Compound 143, methyl (S)-3-(8-chloro-6-(2-chlorophenyl)-1-(3-((dimethylamino)-3-oxopropyl)thio)-4H-benzo[f][1,2,4]triazolo[4,3-a][1,4]diazepin-4-yl)propionate], for the setting “30 mg/kg”, the Duration is on record as 9.62 min and the Latency amounted to 0.64 min.

Regarding `COC(=O)CC[C@@H]1N=C(c2ccccc2F)c2cc(Br)ccc2-n2c(SCCO)nnc21` [Compound 18, methyl (S)-3-(8-bromo-6-(2-fluorophenyl)-1-((2-hydroxyethyl)thio)-4H-benzo[f][1,2,4]triazolo[4,3-a][1,4]diazepin-4-yl)propionate], the Duration (30 mg/kg) is on record as 4.74 min and the Duration (60 mg/kg) stood at 9.16 min. Further, the Latency by setting is: (30 mg/kg) 0.31 min; (60 mg/kg) 0.33 min.
